The target of the test is T1, BbrY_0420 (SBP of the ABC transporter) (Bifidobacterium breve, UniProt A0AAX3NJV5).
T1 sequence (A0AAX3NJV5 1-449): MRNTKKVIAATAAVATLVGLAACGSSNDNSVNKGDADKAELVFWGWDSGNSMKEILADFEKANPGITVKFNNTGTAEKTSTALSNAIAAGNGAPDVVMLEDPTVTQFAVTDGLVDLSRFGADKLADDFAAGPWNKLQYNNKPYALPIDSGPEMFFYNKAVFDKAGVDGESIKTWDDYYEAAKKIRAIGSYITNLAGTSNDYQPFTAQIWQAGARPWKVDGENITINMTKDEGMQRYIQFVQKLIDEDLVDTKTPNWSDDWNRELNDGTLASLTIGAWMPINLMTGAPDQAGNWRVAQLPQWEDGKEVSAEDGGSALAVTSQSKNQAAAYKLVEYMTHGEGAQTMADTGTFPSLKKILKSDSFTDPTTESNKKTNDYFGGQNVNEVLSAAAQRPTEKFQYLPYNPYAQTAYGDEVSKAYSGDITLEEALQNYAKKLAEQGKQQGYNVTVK
The settings on record: HBS-P+ buffer, 25 °C, one-site binding model.

We go through 1 molecule from PMC4635504, “Characterization of a bifidobacterial system that utilizes galacto-oligosaccharides” (Microbiology, 2015).

Turning to `OC[C@H]1O[C@@H](O[C@@H]2[C@H](O)[C@@H](O)[C@H](O[C@H]3[C@H](O)[C@@H](O)C(O)O[C@@H]3CO)O[C@@H]2CO)[C@H](O)[C@@H](O)[C@H]1O` (stereo partly shown) [4′-GL, 4′-galactosyllactose], the equilibrium dissociation constant (Kd) (as a rule, the free concentration of one partner at which half of the binding sites on the other are occupied at equilibrium, for simple one-to-one binding) is 10.4 µM.
